{
  "source": "paper PMC11142920",
  "about": "“De novo-designed transmembrane proteins bind and regulate a cytokine receptor” (Nature Chemical Biology, 2024)",
  "molecules": {"B1": {"name": "mEpoR−GFP1-10 fusion protein (domain or fragment)", "chain": "APSPSLPDPKFESKAALLASRGSEELLCFTQRLEDLVCFWEEAASSGMDFNYSFSYQLEGESRKSCSLHQAPTVRGSVRFWCSLPTADTSSFVPLELQVTEASGSPRYHRIIHINEVVLLDAPAGLLARRAEEGSHVVLRWLPPPGAPMTTHIRYEVDVSAGNRAGGTQRVEVLEGRTECVLSNLRGGTRYTFAVRARMAEPSFSGFWSAWSEPASLLTASDLDPLILTLSLI"}, "B2": {"name": "mEpoR: mouse erythropoietin receptor (target); TM domain (protein)", "chain": "APSPSLPDPKFESKAALLASRGSEELLCFTQRLEDLVCFWEEAASSGMDFNYSFSYQLEGESRKSCSLHQAPTVRGSVRFWCSLPTADTSSFVPLELQVTEASGSPRYHRIIHINEVVLLDAPAGLLARRAEEGSHVVLRWLPPPGAPMTTHIRYEVDVSAGNRAGGTQRVEVLEGRTECVLSNLRGGTRYTFAVRARMAEPSFSGFWSAWSEPASLLTASDLDPLILTLSLILVLISLLLTVLALLSHRRTLQQKIWPGIPSPESEFEGLFTTHKGNFQLWLLQRDGCLWWSPGSSFPEDPPAHLEVLSEPRWAVTQAGDPGADDEGPLLEPVGSEHAQDTYLVLDKWLLPRTPCSENLSGPGGSVDPVTMDEASETSSCPSDLASKPRPEGTSPSSFEYTILDPSSQLLCPRALPPELPPTPPHLKYLYLVVSDSGISTDYSSGGSQGVHGDSSDGPYSHPYENSLVPDSEPLHPGYVACS", "modifications": "left off: HA, end not stated, kept", "notes": "mouse erythropoietin receptor (target); TM domain"}},
  "key": {"mEpoR": {"test_system": "mEpoR", "assay": "EPO-induced proliferation (growth inhibition) of BaF3/mEpoR cells expressing TM proteins", "assay_type": "cell-based, mouse", "details": "0.06 U ml^−1 EPO, IL-3-free, 6-8 days; versus empty vector", "method": "Mouse IL-3-dependent BaF3 and derivative cells were maintained in RPMI-10 medium: RPMI-1640 supplemented with 10% heat-inactivated FBS, 5% WEHI-3B cell-conditioned medium (as the source of IL-3), 4 mM L-glutamine, 0.06 mM β-mercaptoethanol and 1⨯ P-S. BaF3 cells expressing mEpoR, hEpoR and all EpoR mutants and chimeras were generated by infecting BaF3 cells with pMSCV-neo vector containing the desired HA-tagged EpoR gene. BaF3 cells (5 ⨯ 10^5) were washed with PBS and then resuspended in 500 μl of RPMI-10 medium with 4 μg ml^−1 polybrene. […]\nFor proliferation assays, 2 ⨯ 10^5 BaF3 and derivative cells expressing the appropriate genes were washed in PBS three times to remove IL-3. […] Viable cells were counted 6−8 days after IL-3 removal. […] The statistical significance of differences between control and experimental samples was evaluated by either one-tailed or two-tailed Student’s t-tests with unequal variance, performed using the T.TEST function in Microsoft Excel (2013).\nFor proliferation assays, BaF3/mEpoR/tTA cells expressing CHAMP proteins were first cultured in 10 ml of RPMI-10/IL-3 medium in the absence of Dox or supplemented with 100 or 200 pg ml^−1 Dox for 48 h. Then, 2 ⨯ 10^5 BaF3 cells were washed in PBS, resuspended in IL-3-free medium supplemented with the same concentration of Dox and 0.06 U ml^−1 human EPO, and counted as described above."}, "mEpoR−GFP1-10": {"test_system": "mEpoR−GFP1-10", "assay": "Split GFP complementation with mEpoR−GFP1-10", "assay_type": "cell-based, mouse", "details": "flow cytometry, BaF3 cells"}, "ErbB2−GFP1-10": {"test_system": "ErbB2−GFP1-10", "assay": "Split GFP complementation with ErbB2−GFP1-10", "assay_type": "cell-based", "details": "flow cytometry, BaF3 (tTa) cells, 1 pM doxycycline"}, "[1]": {"target": "mEpoR-TM2 (isotope-labeled mEpoR TM domain fragment) (mouse)", "assay": "SDS-PAGE; mEpoR TM peptide on SDS-PAGE, non-covalent monomer and dimer bands"}, "[2]": {"target": "GFP11−CHAMP-1 (Flag tag, GFP11, GGG linker, CHAMP-1)", "assay": "split reporter (BiFC, NanoBiT); split GFP complementation in BaF3 cells co-expressing a GFP1-10 fusion and a GFP11 fusion; mean fluorescence intensity by flow cytometry"}, "mEpoR TM domain": {"test_system": "mEpoR TM domain", "details": "parallel self-interaction; ref [25]–[28]; cited from earlier work", "from_the_text": "EpoR is a prototypical cytokine receptor whose TM domain contributes to both receptor homodimerization[25]–[27] and conformational coupling upon ligand binding[28],[29], activating the Janus kinase (JAK)−signal transducer and activator of transcription (STAT) pathway. […] In model membranes, designed TM peptides hosting SXXLXXX sequence repeats spontaneously homodimerize, strongly favoring parallel TM helix geometry like that of ..."}},
  "data": [
    {"molecule": "MDHLGASLWPQVGSLCLLLAGAAWAPPLDPLILTLSLILVLISLLLTVLALLSHRRALKQKIWPGIPSPESEGPYSNPYENSLIPAAEPLPPSYVACS [mEpoR TM domain mimic protein, type I mEpoR TM domain mimic protein expressed in BaF3 cells]", "values": [
      {"measurement": "inhibition of EPO-induced proliferation (in words)", "setting": "mEpoR", "result": "did not show inhibited proliferation"}
    ]},
    {"molecule": "MDHLGASLWPQVGSLCLLLAGAAWERVQLAHHFSEPEITLIIFGVMAGVIGTILLISYGIRRLIGGSGGGGSGGRDHMVLHEYVNAAGIT [glycophorin A, GlycophorinA TM domain construct fused at its c-terminus to GFP11]", "values": [
      {"measurement": "fluorescence in mEpoR−GFP1-10 expressing cells (in words)", "setting": "mEpoR−GFP1-10", "result": "fluorescence was not increased"}
    ]},
    {"molecule": "MDHLGASLWPQVGSLCLLLAGAAWPVTFIIATVVGVLLFLILVVVVGILGGSGGGGSGGRDHMVLHEYVNAAGIT [ErbB2 TM domain fusion, ErbB2 TM domain construct fused to GFP11 at its c-terminus]", "values": [
      {"measurement": "complementation of ErbB2−GFP1-10", "setting": "ErbB2−GFP1-10", "result": "could complement ErbB2−GFP1-10"},
      {"measurement": "fluorescence in mEpoR−GFP1-10 expressing cells (in words)", "setting": "mEpoR−GFP1-10", "result": "fluorescence was not increased"}
    ]},
    {"molecule": "MRLPGAMPALALKGELLLLSLLLLLEPQISQGLVVTPKVVVISAILALVVLTIISLIILIMLWQKKPRYEIRWKVIESVSCPAPRAEAEDSFL [PDGFβR, unrelated platelet-derived growth factor β receptor TM domain protein construct]", "values": [
      {"measurement": "inhibition of EPO-induced proliferation (in words)", "setting": "mEpoR", "result": "did not show inhibited proliferation"}
    ]},
    {"molecule": "mEpoR-TM2 (isotope-labeled mEpoR TM domain fragment) (peptide)", "values": [
      {"measurement": "stoichiometry N", "setting": "[1]", "result": 2}
    ]},
    {"molecule": "B1", "values": [
      {"measurement": "fold MFI over cells expressing mEpoR−GFP1-10 alone or the CHAMP-1 fusion alone", "setting": "[2]", "result": "> 4", "unit": "fold"}
    ]},
    {"molecule": "B2", "values": [
      {"measurement": "homodimerization of mEpoR TM domains", "setting": "mEpoR TM domain", "result": "only weakly homodimerize"}
    ]}
  ]
}
